Experimental data: the supplement of paper PMC10307832

Key:
Assay in all cases: relative viability (nuclei count vs DMSO), 5 days (fraction); higher = more cells survive
Tanzisertib + Foretinib = compound: O[C@H]1CC[C@H](Nc2ncc3nc(Nc4c(F)cc(F)cc4F)n([C@H]4CCOC4)c3n2)CC1 [Tanzisertib] + COc1cc2c(Oc3ccc(NC(=O)C4(C(=O)Nc5ccc(F)cc5)CC4)cc3F)ccnc2cc1OCCCN1CCOCC1 [Foretinib] (partner 0.25 µM)
Method in brief: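 Lung cancer cell lines in 1536-well plates got either a single drug or a fixed anchor-drug dose together with five library-drug doses (not always all listed) in √10 steps, by pin tool, on the day after seeding. Nuclei were counted after 5 days, and relative viability is the treated-to-vehicle ratio of nuclei counts. Values are medians of duplicate plates.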

[1] = compound: C[C@@H](N)c1ccc(C(=O)Nc2ccnc3[nH]ccc23)cc1
Method in brief: (§1)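 Lung cancer cell lines in 1536-well plates were exposed by pinning to five library-drug doses (not always all listed) √10 apart, following an overnight hold at 37 °C. MetaXpress counted Hoechst-stained nuclei from 4× images taken after 5 days without medium change. Viability is the median ratio of treated-well to vehicle-well nuclei across plates. Plates required control CV below 25% and at least one doubling.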

Tanzisertib = compound: O[C@H]1CC[C@H](Nc2ncc3nc(Nc4c(F)cc(F)cc4F)n([C@H]4CCOC4)c3n2)CC1 [Tanzisertib]
Method in brief: as §1

[2] = compound: C1CNCCC1C2=CC(=NN2)C3=CC=NC=C3
Method in brief: as §1

Cell Line	relative viability (Tanzisertib + Foretinib; first compound 0.08 µM)	relative viability (Tanzisertib + Foretinib; first compound 0.253 µM)	relative viability (Tanzisertib + Foretinib; first compound 0.8 µM)	relative viability (Tanzisertib + Foretinib; first compound 2.53 µM)	relative viability (Tanzisertib + Foretinib; first compound 8 µM)	relative viability ([1]; 0.04 µM)	relative viability ([1]; 0.1265 µM)	relative viability ([1]; 0.4 µM)	relative viability ([1]; 1.265 µM)	relative viability ([1]; 4 µM)	relative viability (Tanzisertib; 0.08 µM)	relative viability (Tanzisertib; 0.253 µM)	relative viability (Tanzisertib; 0.8 µM)	relative viability (Tanzisertib; 2.53 µM)	relative viability (Tanzisertib; 8 µM)	relative viability ([2]; 0.08 µM)	relative viability ([2]; 0.8 µM)	relative viability ([2]; 2.53 µM)	relative viability ([2]; 8 µM)
NCI-H1650	1.3	0.984	1.07	1.15	0.776	0.933	1.05	0.951	0.977	0.867	0.953	1	0.93	0.864	0.771	0.752	0.995	0.987	0.955
NCI-H727	0.88	1.02	0.662	0.936	0.91	1.02	1.17	1.25	0.932	1.3	0.918	0.901	1.01	0.887	0.944	0.874	0.942	1.05	1.22
NCI-H2342	1.21	0.977	1.03	0.982	1.08	1.03	1.06	1.04	1.21	0.927	1.09	1.09	0.945	0.845	0.959	0.919	0.965	1.03	1.16
COR-L23	1.01	0.966	1	1.13	1	0.913	1.17	0.941	0.878	0.646	1.06	1.04	1.07	1.06	1.04	1.02	1.19	0.991	0.982
ChaGo-K-1	0.969	0.982	0.861	0.94	0.891	1.08	0.999	1.02	0.804	0.888	1.05	0.999	0.984	0.992	0.986	0.93	1.05	0.952	0.91
HOP-62	0.99	1.07	0.986	1.22	1.32	0.957	0.949	1.03	0.884	0.899	1.1	1.03	1	1.12	1.03	1.09	1.11	1.05	1.02
NCI-H1915	1.12	1.1	1.11	1.11	1.16	0.856	1.02	0.962	–	0.884	1.12	1.04	0.957	1.01	0.875	0.968	1.07	0.999	0.977
BEN	0.619	0.75	0.679	0.766	0.828	0.927	0.954	1.04	1.01	0.718	0.977	1.01	0.997	1.08	0.832	0.825	0.888	0.984	1.04
NCI-H1437	1.26	1.31	1.32	1.42	1.29	1.04	1.03	1.08	0.968	0.987	1	1.06	1.04	1.02	1.04	0.974	1.07	1	0.99
EMC-BAC-2	1.04	0.937	0.988	0.969	0.966	0.769	1.02	0.945	0.789	0.795	0.989	1.31	0.99	1.04	0.82	0.78	0.97	1.07	0.98
NCI-H647	1.23	1.25	1.11	1.29	1.12	0.992	0.955	0.916	0.694	0.811	1.21	0.976	0.973	1.12	0.779	1.02	0.947	1	0.868
LXF-289	1.02	1.01	1.06	0.989	1.03	1.03	1	1.03	1.05	0.902	1.08	0.986	1.07	1.05	1.16	1.04	1.05	0.991	1
LOU-NH91	0.914	0.946	0.903	0.87	0.639	0.811	0.972	0.861	0.607	0.755	0.995	0.988	0.909	0.995	0.657	1.1	1.02	1.05	0.945
NCI-H23	1.01	1.07	0.996	0.952	1.02	0.895	0.999	1.12	–	0.826	1.18	1.01	1.06	0.998	0.43	0.866	0.988	1.26	1.14
NCI-H1993	0.823	0.841	0.844	0.786	0.73	0.989	1.1	–	0.9	0.996	1.06	0.952	0.969	0.822	0.786	0.889	0.911	0.978	1.02
HCC-827	1.13	1.1	1.07	0.814	0.389	0.901	1.13	1.05	1.05	0.938	1.07	1.05	1.03	1.02	0.663	1.05	1.04	1.06	1.01
NCI-H1623	0.956	0.815	0.912	0.834	0.788	1.16	0.976	1.11	1.06	1.15	1.08	1.21	1.01	0.964	0.952	0.991	0.921	1.14	1.03

Cell Line	relative viability (Tanzisertib + Foretinib; first compound 0.08 µM)	relative viability (Tanzisertib + Foretinib; first compound 0.253 µM)	relative viability (Tanzisertib + Foretinib; first compound 0.8 µM)	relative viability (Tanzisertib + Foretinib; first compound 2.53 µM)	relative viability (Tanzisertib + Foretinib; first compound 8 µM)	relative viability ([1]; 0.04 µM)	relative viability ([1]; 0.1265 µM)	relative viability ([1]; 0.4 µM)	relative viability ([1]; 1.265 µM)	relative viability ([1]; 4 µM)	relative viability (Tanzisertib; 0.08 µM)	relative viability (Tanzisertib; 0.253 µM)	relative viability (Tanzisertib; 0.8 µM)	relative viability (Tanzisertib; 2.53 µM)	relative viability (Tanzisertib; 8 µM)	relative viability ([2]; 0.08 µM)	relative viability ([2]; 0.8 µM)	relative viability ([2]; 2.53 µM)	relative viability ([2]; 8 µM)
NCI-H650	0.979	1.07	1.04	1.09	1.08	–	0.849	0.932	–	0.785	0.973	1.01	0.975	1.14	0.411	0.946	0.933	1.08	0.998
CAL-12T	1.11	1.13	1.05	1.25	1.07	1.11	1.04	1.23	0.945	0.839	1.03	1.09	1.08	1.05	1.03	1.01	1.18	1.08	0.99
NCI-H838	1.1	1.01	1.11	1.02	0.937	0.761	0.905	0.867	0.576	0.415	0.987	0.985	0.933	0.933	0.917	0.997	0.884	1.01	0.956
NCI-H2228	0.961	0.869	0.928	0.733	0.68	1.17	1.05	1.13	1.03	0.814	1.19	0.853	1.02	1.06	0.864	0.921	1.17	0.983	1.07
RERF-LC-KJ	0.929	0.788	0.873	0.841	0.842	1.02	1.01	1.16	1.08	1.02	1.13	1	1.01	0.972	0.87	0.868	1.01	1.03	0.943
NCI-H661	1.07	0.999	1	1.04	0.995	0.907	1.02	0.974	0.891	0.87	1.01	0.997	0.964	0.944	0.964	0.993	0.964	0.96	0.988
HCC-366	0.917	0.918	0.922	0.975	0.917	1.01	1.04	1.09	–	1.03	0.981	1.03	1.01	0.993	0.487	0.969	0.995	1.01	0.999
SK-LU-1	0.837	0.755	0.807	0.815	0.781	0.986	1.04	1	0.886	0.833	1.19	1.05	1.02	1.1	1.01	1.04	0.972	1.2	1.02
A-427	1.18	1.05	1.02	0.939	1.04	0.862	1.07	0.975	–	0.906	0.997	0.998	1.07	1.08	0.789	0.953	1.05	0.984	1.05
SW 1573	0.73	0.92	0.898	0.933	0.819	1.13	1.04	1.08	0.966	0.803	1.14	0.938	1	1.01	0.909	0.709	1.06	1.15	1.09
SW 900	1.02	0.784	1.07	0.924	0.787	0.92	0.965	0.887	1.24	0.986	0.811	0.87	0.936	1.18	0.691	0.843	0.67	0.88	0.995
NCI-H322M	1.02	0.962	0.886	0.961	0.97	1.14	1.12	1.14	–	1.25	1.06	0.969	1.02	0.919	0.867	0.93	0.923	0.92	1.02
ABC-1	0.91	1.14	0.909	0.876	0.706	0.767	1.07	0.918	0.579	0.901	1.03	0.995	0.882	1	0.957	0.975	0.817	1.07	1.02
LK-2	1.26	1.01	1.11	1.03	1.46	1.32	0.863	1.04	0.929	1.21	1.16	1.06	1	1.03	1.03	0.729	1.02	1.07	1.05
NCI-H2023	0.853	0.874	0.936	0.901	0.646	1.04	1.06	1.12	0.942	1.02	1.1	0.958	1	0.907	0.899	0.821	1.1	1.08	1
NCI-H596	0.723	0.82	0.724	0.699	0.76	1.06	0.905	0.907	0.815	0.967	0.927	1.05	0.893	0.914	0.818	1.02	0.995	0.983	0.959
SK-MES-1	0.971	0.917	0.889	0.992	0.7	0.987	0.969	1	0.878	0.82	1.08	0.984	0.975	0.992	0.808	1.03	0.925	1.05	0.999
